# Patent US20240398757A1 (COCRYSTAL PHARMA, INC., priority 2022, published 2024)
# Target: T1, SARS2 protease (Severe acute respiratory syndrome coronavirus 2, UniProt P0DTD1)
# T1 construct: SARS2 protease was added to a final concentration of 30 nM
# Assay: SARS-CoV-2 protease inhibition assay (SARS2 FRET protease assay)
# Assay type: biochemical
# Settings: IC50 (μM), SARS2 protease 30 nM, peptide substrate 1.3 μM, 120 minutes at 37° C., compounds 20 μM to 0.075 nM
row,SMILES,IC50 [µM]
1,"CCCC[C@H](NC(=O)OC(c1ccccc1)C(F)(F)c1cccc(Cl)c1)C(=O)N[C@@H](Cc1ccc[nH]c1=O)C(=O)C(=O)NC1CC1 (stereo partly drawn) [Compound A285, 2-(3-chlorophenyl)-2,2-difluoro-1-phenylethyl ((S)-1-(((S)-4-(cyclopropylamino)-3,4-dioxo-1-(2-oxo-1,2-dihydropyridin-3-yl)butan-2-yl)amino)-1-oxohexan-2-yl)carbamate]",1.3
2,O=C[C@H](C[C@@H]1CCNC1=O)NC(=O)[C@H](Cc1cccc(Cl)c1)NC(=O)OC(c1ccccc1)C(F)(F)c1cccc(Cl)c1 (stereo partly shown) [Compound A286],0.0001
3,CCNC(=O)C(=O)[C@H](C[C@@H]1CCNC1=O)NC(=O)[C@H](Cc1cccc(Cl)c1)NC(=O)OC(c1ccccc1)C(F)(F)c1cccc(Cl)c1 (stereo partly shown) [Compound A287],1.06
4,CC(C)C[C@H](NC(=O)O[C@@H](c1ccccc1)C(F)(F)c1cccc(C2CC2)c1)C(=O)N[C@@H](C[C@@H]1CCNC1=O)C(=O)C(=O)NC1CC1 [Compound A288],0.26
5,"CCCC[C@H](NC(=O)OC(c1ccccc1)C(F)(F)c1cccc(Cl)c1)C(=O)N[C@H](C=O)Cc1ccc[nH]c1=O (stereo partly drawn) [Compound A292, 2-(3-chlorophenyl)-2,2-difluoro-1-phenylethyl ((S)-1-oxo-1-(((S)-1-oxo-3-(2-oxo-1,2-dihydropyridin-3-yl)propan-2-yl)amino)hexan-2-yl)carbamate]",0.159
6,CCOP(=O)(OCC)C(O)[C@H](C[C@@H]1CCNC1=O)NC(=O)[C@H](CC1CCCCC1)NC(=O)O[C@H](c1ccccc1)C(F)(F)c1cccc(Cl)c1 (stereo partly shown) [Compound A293],16.1
7,CCCC[C@H](NC(=O)OC(c1ccccc1)C(F)(F)c1cccc(Cl)c1)C(=O)N[C@@H](C[C@@H]1CCNC1=O)C(=O)C(=O)NCCNCC (stereo partly shown) [Compound A294],0.486
8,CCCC[C@H](NC(=O)O[C@@H](c1cccnc1)C(F)(F)c1cccc(Cl)c1)C(=O)N[C@@H](C[C@@H]1CCNC1=O)C(=O)C(=O)NC1CC1 [Compound A301],0.0362
9,CCCC[C@H](NC(=O)O[C@@H](c1ccncc1)C(F)(F)c1cccc(Cl)c1)C(=O)N[C@@H](C[C@@H]1CCNC1=O)C(=O)C(=O)NC1CC1 [Compound A303],0.055
10,CCCC[C@H](NC(=O)OC(c1ccn(C)n1)C(F)(F)c1cccc(Cl)c1)C(=O)N[C@H](C=O)C[C@@H]1CCNC1=O (stereo partly shown) [Compound A305],0.0004
11,CCCC[C@H](NC(=O)OC(c1ccccc1)C(F)(F)c1cccc(Cl)c1)C(=O)NC(CN1CCNC1=O)C(=O)C(=O)NC1CC1 (stereo partly shown) [Compound A306],4.41
12,CC(C)C[C@H](NC(=O)OC(c1ccccc1)C(F)(F)c1cccc(Cl)c1)C(=O)NC(CN1CCNC1=O)C(=O)C(=O)NC1CC1 (stereo partly shown) [Compound A307],4.44
13,CC[C@@H](C)C[C@H](NC(=O)O[C@H](c1ccccc1)C(F)(F)c1cccc(Cl)c1)C(=O)N[C@@H](C[C@@H]1CCNC1=O)C(=O)C(=O)NC1CC1 [Compound A311],0.181
14,CC[C@@H](C)C[C@H](NC(=O)O[C@@H](c1ccccc1)C(F)(F)c1cccc(Cl)c1)C(=O)N[C@@H](C[C@@H]1CCNC1=O)C(=O)C(=O)NC1CC1 [Compound A312],0.64
15,CCCC[C@H](NC(=O)OC(c1ccn(C)n1)C(F)(F)c1cccc(Cl)c1)C(=O)N[C@@H](C[C@@H]1CCNC1=O)C(=O)C(=O)NCC (stereo partly shown) [Compound A313],0.139
16,CC(C)C[C@H](NC(=O)OC(c1ccccc1)C(F)(F)c1cccc(C2CCC2)c1)C(=O)N[C@H](C=O)C[C@@H]1CCNC1=O (stereo partly shown) [Compound A314],0.001
17,CC(C)C[C@H](NC(=O)OC(c1ccccc1)C(F)(F)c1cccc(C2CCC2)c1)C(=O)N[C@@H](C[C@@H]1CCNC1=O)C(=O)C(=O)NC1CC1 (stereo partly shown) [Compound A315],0.051
18,CC(C)C[C@H](NC(=O)O[C@@H](c1ccccc1)C(F)(F)c1cccc(Cl)c1)C(=O)N[C@@H](C[C@@H]1CCNC1=O)C(=O)C(=O)NC1CC1 [Compound A317],0.0004
19,CCCC[C@H](NC(=O)OC(c1cnn(C)c1)C(F)(F)c1cccc(Cl)c1)C(=O)N[C@@H](C[C@@H]1CCNC1=O)C(=O)C(=O)NCC (stereo partly shown) [Compound A319],0.001
20,CCNC(=O)C(=O)[C@H](C[C@@H]1CCNC1=O)NC(=O)[C@@H](CC1(CC)CCC1)NC(=O)O[C@@H](c1ccccc1)C(F)(F)c1cccc(Cl)c1 [Compound A320],0.0001
21,CCNC(=O)C(=O)[C@H](C[C@@H]1CCNC1=O)NC(=O)[C@H](CC1(CC)CCC1)NC(=O)O[C@H](c1ccccc1)C(F)(F)c1cccc(Cl)c1 [Compound A322],1.72
22,CCNC(=O)C(=O)[C@H](C[C@@H]1CCNC1=O)NC(=O)[C@H](CC1(CC)CCC1)NC(=O)O[C@@H](c1ccccc1)C(F)(F)c1cccc(Cl)c1 [Compound A323],3.84
23,CCNC(=O)C(=O)[C@H](C[C@@H]1CCNC1=O)NC(=O)[C@@H](CC1(C)CCC1)NC(=O)O[C@@H](c1ccccc1)C(F)(F)c1cccc(Cl)c1 [Compound A324],0.0003
24,CCNC(=O)C(=O)[C@H](C[C@@H]1CCNC1=O)NC(=O)[C@H](CC1(C)CCC1)NC(=O)O[C@H](c1ccccc1)C(F)(F)c1cccc(Cl)c1 [Compound A326],0.367
25,CCNC(=O)C(=O)[C@H](C[C@@H]1CCNC1=O)NC(=O)[C@H](CC1(C)CCC1)NC(=O)O[C@@H](c1ccccc1)C(F)(F)c1cccc(Cl)c1 [Compound A327],5.33
